Source: publication PMC8497620, “Structure and inhibition of Cryptococcus neoformans sterylglucosidase to develop antifungal agents” (Nature Communications, 2021)
Values joined by “and” are separate entries in the source; they are usually repeats but may differ in a detail not shown here. Equal entries are not always repeated. “Also recorded” adds a separate entry of the source. Where two headings read alike, the source gives them in different places.

Assays:
[1] = test system: human lung epithelial cancer cell line A549; details: LD50 A549 / IC50 Sgl1
Method: The cells were maintained in Dulbecco’s modified eagle medium containing 10% fetal bovine serum and 1% penicillin–streptomycin. At passage 11, 10^5 cells were transferred into each well of 96-well plates and cultured for 18–24 h for the cells to adhere to the well surface. After, the medium was removed and a fresh medium containing the selected compounds at a concentration range of 1–512 μM were added to the wells. Controls with equivalent serial concentrations of DMSO were also evaluated and compared with a control without DMSO. The plate was incubated at 37 °C with 5% CO2. After 24 h, the supernatant was removed and 50 μL of 5 mg/mL 3-(4,5-dimethylthiazol-2-yl)-2,5-diphenyltetrazoliumbromide (MTT) solution in phosphate-buffered saline (PBS) was added to each well. The plates were incubated for an additional 4 h and the formazan crystals formed inside the cell was dissolved by adding 50 μL DMSO.

C. neoformans H99 [2] = assay: Growth inhibition assay (YNB, 1% glucose, sealed plates, limited oxygen); assay type: cell-based, Cryptococcus neoformans; details: 37 °C, 72 h
Method: Five microliters containing 100 cells of C. neoformans H99 were inoculated in solid YNB media without amino acids plus 1% w/v glucose. Plates were then sealed with clear polyolefin sealing tape (ThermoFisher) and incubated at 37 °C for 72 h. Hits 1, 9, and 15 were added to the media at concentrations of 10 and 50 µM. H99, Δsgl1, and Δsgl1 + SGL1 strains were used as controls without compounds.

[3] = target: T1, Cerezyme (human glucosylceramidase) (Homo sapiens, UniProt P04062, R534H); assay: Effect on Cerezyme activity with res-glp substrate; assay type: biochemical; details: substrate resorufin 3β-D-glucopyranoside (100 µM)
T1 construct: purchased Genzyme Corporation, Cambridge, MA, USA
T1 sequence (P04062 40-536 R534H): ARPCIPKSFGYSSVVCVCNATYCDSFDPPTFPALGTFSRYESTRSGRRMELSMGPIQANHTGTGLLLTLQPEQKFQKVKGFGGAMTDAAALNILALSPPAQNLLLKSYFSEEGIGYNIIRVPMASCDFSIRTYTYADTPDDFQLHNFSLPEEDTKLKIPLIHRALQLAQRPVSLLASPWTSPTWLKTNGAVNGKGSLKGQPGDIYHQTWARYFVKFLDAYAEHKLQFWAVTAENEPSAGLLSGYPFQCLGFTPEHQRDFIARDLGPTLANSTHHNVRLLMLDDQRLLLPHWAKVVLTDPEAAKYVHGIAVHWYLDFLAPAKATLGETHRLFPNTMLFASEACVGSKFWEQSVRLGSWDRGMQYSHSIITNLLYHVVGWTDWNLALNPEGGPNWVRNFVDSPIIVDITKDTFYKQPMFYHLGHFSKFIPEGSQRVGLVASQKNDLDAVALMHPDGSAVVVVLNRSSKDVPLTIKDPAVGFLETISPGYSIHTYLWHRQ
Method: Resorufin-3β-D-glucopyranoside (res-glp, Sigma-Aldrich) enzyme kinetic assays were performed according to methods described by Urban et al.[16] with modifications. Reaction buffer contained 50 mM citric acid, 176 mM K2HPO4, pH 6, 0.01% Tween-20, and 10 mM sodium taurocholate. The reactions were carried out in black 96-well plates using 20 ng of enzyme with 100 μM res-glp substrate. In all, 10 μL/well of res-glp substrate was added to each well and the reaction was initiated by adding 20 μL enzyme (20 ng). After incubation at 37 °C for 30–40 min, the fluorescence was read at an excitation of 570 (±10) nm and an emission of 610 (±10) nm on a VersaMax™ Microplate Reader from Molecular Devices. A standard curve was prepared with serial dilutions of the free fluorophore, resorufin, in the same volume of assay buffer. All reactions were linear with respect to time and protein concentration and the pH, temperature, and dimethyl sulfoxide (DMSO) optimal tolerance was verified.
The Z′-factor was used for the assessment of the efficiency of the HTS assay for each individual plate. Values greater than 0.5 has been considered as an indicator of an excellent screening assay quality. […] The top three hits identified were re-tested in serial dilution against Sgl1 and cerezyme.

C. neoformans H99 [4] = assay type: cell-based, Cryptococcus neoformans; details: for Ergosterol 3β-D-glucoside accumulation (pmol/ Inorganic phosphate): 100 µM; for accumulation of erg-glc, fold less than the mutant Cn Δsgl1: 500 µM, 24 h; for erg-glc accumulation compared to untreated Cn H99 control: 24 h of treatment
Method: C. neoformans H99 was cultivated in yeast nitrogen base (YNB) broth for 24 h at 37 °C with shaking. […] […] After that, the resultant pellets were re-counted and used for lipid extraction. Thenceforth the total lipid was extracted as described previously by Singh et al.[55]. The dried samples were resuspended in chloroform/methanol 2:1 ratio for LC-MS analysis. A standard erg-glc from Avanti Polar Lipids was used as a control for the calibration curve. Data were normalized to the total inorganic phosphate content in the sample.

C. neoformans Sgl1 = C. neoformans Sgl1 (Cryptococcus neoformans var. grubii, UniProt J9W473); assay: Sgl1 inhibition with native substrate erg-glc; assay type: biochemical; details: substrate ergosterol 3β-D-glucoside (1 mol%); for inhibition at 10 µM: read-out: % Sgl1 Inhibition, 10 µM compound; for inhibition at 100 µM: read-out: % Sgl1 Inhibition, 100 µM compound; for inhibition at 0.1 µM: read-out: % Sgl1 Inhibition, 0.1 µM compound; for inhibition at 1 µM: read-out: % Sgl1 Inhibition, 1 µM compound
Method: To validate the selective inhibition of Sgl1 by these compounds, we first tested their ability to inhibit hydrolysis of erg-glc in vitro.
A 50 μL volume of Cn Sgl1 wild type and 50 μL of mixed micelles of lipid and Triton X-100 in 50 mM Bis-Tris buffer with 150 mM NaCl, 5 mM βME, and 5 mM DTT were mixed and incubated at 37 °C for 10 min (erg-glc, Avanti Polar Lipids) and 1 h (C6-NBD-glcCer, Matreya). For the substrate erg-glc the amount of protein was 5 ng. 150 ng protein was used for reactions with C6-NBD-GlcCer. After the incubation period, each reaction was quenched with a 2:1 chloroform:methanol solution and the organic phase was collected and dried. Then, the lipid content was resuspended in 50 μL methanol and applied to HPLC (Agilent Technologies). Total erg-glc and ergosterol was detected using absorbance at 282 nm on a C-8 column with a flow rate of 0.5 ml/min in methanol/water 90:10 ratio buffered with 1 mM ammonium formate and 0.2% formic acid. A 85:15 ratio of the same eluent was used for C6-NBD-GlcCer and C6-NBD-ceramide monitoring the fluorescence at 470/530 nm excitation/emission. The total area of product was normalized by the total area of its respective substrate.

C. neoformans Sgl1, sequence (J9W473 entry or part of it): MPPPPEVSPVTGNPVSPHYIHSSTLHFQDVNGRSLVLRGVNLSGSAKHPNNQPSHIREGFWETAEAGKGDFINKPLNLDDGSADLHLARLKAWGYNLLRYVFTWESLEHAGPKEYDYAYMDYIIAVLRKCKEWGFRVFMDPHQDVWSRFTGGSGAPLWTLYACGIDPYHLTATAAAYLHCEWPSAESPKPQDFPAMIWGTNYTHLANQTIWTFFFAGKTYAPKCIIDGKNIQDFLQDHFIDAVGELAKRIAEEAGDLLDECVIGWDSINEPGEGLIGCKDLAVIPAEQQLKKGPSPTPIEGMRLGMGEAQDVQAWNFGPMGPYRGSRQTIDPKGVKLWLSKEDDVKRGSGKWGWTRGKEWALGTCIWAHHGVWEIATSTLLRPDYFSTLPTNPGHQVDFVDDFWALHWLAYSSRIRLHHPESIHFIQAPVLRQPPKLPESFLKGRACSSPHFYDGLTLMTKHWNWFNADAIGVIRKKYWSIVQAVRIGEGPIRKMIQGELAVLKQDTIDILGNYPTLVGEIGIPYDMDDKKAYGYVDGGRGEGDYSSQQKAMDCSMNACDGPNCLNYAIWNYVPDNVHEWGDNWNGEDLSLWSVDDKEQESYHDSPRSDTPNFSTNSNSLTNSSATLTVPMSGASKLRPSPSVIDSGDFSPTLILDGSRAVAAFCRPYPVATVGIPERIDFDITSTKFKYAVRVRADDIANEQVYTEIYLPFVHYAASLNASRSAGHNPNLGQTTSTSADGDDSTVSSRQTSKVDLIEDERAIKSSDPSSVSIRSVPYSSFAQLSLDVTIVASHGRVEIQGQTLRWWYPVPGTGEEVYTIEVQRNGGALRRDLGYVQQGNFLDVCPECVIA

Structure (SMILES): COc1cccc(-c2ncc(CN3CCC(O)(CO)CC3)s2)c1 [Hit 1]
- selectivity index (SI = LD50/IC50) [1]: > 500
- growth of wild-type C. neoformans (C. neoformans H99 [2]; 50 µM): inhibit growth similarly to C. neoformans Δsgl1; also recorded: lack of growth
- % Cerezyme Inhibition ([3]; 12.5427 µM compound): 4.937% and 1.065%
- % Cerezyme Inhibition ([3]; 25.0854 µM compound): 6.583%
- inhibition at 25.0854 µM ([3]; 25.0854 µM compound): 7.34%
- % Cerezyme Inhibition ([3]; 50.1708 µM compound): 7.795%
- inhibition at 50.1708 µM ([3]; 50.1708 µM compound): 8.81%
- inhibition at 100.342 µM ([3]; 100.342 µM compound): 9.86%
- % Cerezyme Inhibition ([3]; 200.683 µM compound): 9.338%
- inhibition at 200.683 µM ([3]; 200.683 µM compound): 9.63%
- inhibition at 401.367 µM ([3]; 401.367 µM compound): 9.86%
- % Cerezyme Inhibition ([3]; 800 µM compound): 12.9786%
- inhibition at 800 µM ([3]; 800 µM compound): 10.5%
- Ergosterol 3β-D-glucoside accumulation (pmol/ Inorganic phosphate) (C. neoformans H99 [4]; 12h): 22000000 pmol/ Inorganic phosphate and 25300000 pmol/ Inorganic phosphate and 19400000 pmol/ Inorganic phosphate
- Ergosterol 3β-D-glucoside accumulation (pmol/ Inorganic phosphate) (C. neoformans H99 [4]; 24h): 17200000 pmol/ Inorganic phosphate and 20300000 pmol/ Inorganic phosphate and 31000000 pmol/ Inorganic phosphate
- accumulation of erg-glc, fold less than the mutant Cn Δsgl1 (C. neoformans H99 [4]): about 10 fold
- erg-glc accumulation compared to untreated Cn H99 control (C. neoformans H99 [4]): significant differences, especially in concentrations higher than 10 µM
- % Sgl1 Inhibition (C. neoformans Sgl1; 0.1 µM compound, 0.1 µM): 11.4412% and 5.382%
- % Sgl1 Inhibition (C. neoformans Sgl1; 10 µM compound, 10 µM): 46.34%
- % Sgl1 Inhibition (C. neoformans Sgl1; 100 µM compound, 100 µM): 79.9522%
- inhibition at 10 µM (C. neoformans Sgl1): 40.5%
- inhibition at 100 µM (C. neoformans Sgl1): 84.8%

Structure (SMILES): CN1C[C@@H](NC(=O)Cc2ccc3c(c2)NC(=O)CO3)C[C@@H]1CO [Hit 9]
- selectivity index (SI = LD50/IC50) [1]: > 500
- growth of wild-type C. neoformans (C. neoformans H99 [2]; 10 µM): abrogated C. neoformans growth
- growth of wild-type C. neoformans (C. neoformans H99 [2]; 50 µM): inhibit growth similarly to C. neoformans Δsgl1; also recorded: lack of growth
- % Cerezyme Inhibition ([3]; 12.5427 µM compound): 0.6044%
- inhibition at 12.5427 µM ([3]; 12.5427 µM compound): 1.03%
- % Cerezyme Inhibition ([3]; 25.0854 µM compound): 2.143%
- inhibition at 25.0854 µM ([3]; 25.0854 µM compound): 2.64%
- % Cerezyme Inhibition ([3]; 50.1708 µM compound): 6.259%
- inhibition at 50.1708 µM ([3]; 50.1708 µM compound): 5.68%
- % Cerezyme Inhibition ([3]; 100.342 µM compound): 7.029%
- inhibition at 100.342 µM ([3]; 100.342 µM compound): 6.87%
- % Cerezyme Inhibition ([3]; 200.683 µM compound): 9.927%
- inhibition at 200.683 µM ([3]; 200.683 µM compound): 9.82%
- % Cerezyme Inhibition ([3]; 401.367 µM compound): 12.2165%
- inhibition at 401.367 µM ([3]; 401.367 µM compound): 14.1%
- inhibition at 800 µM ([3]; 800 µM compound): 16.7%
- accumulation of erg-glc, fold less than the mutant Cn Δsgl1 (C. neoformans H99 [4]): about 10 fold
- % Sgl1 Inhibition (C. neoformans Sgl1; 0.1 µM compound, 0.1 µM): 58.2711%
- % Sgl1 Inhibition (C. neoformans Sgl1; 1 µM compound, 1 µM): 93.4351%
- % Sgl1 Inhibition (C. neoformans Sgl1; 10 µM compound, 10 µM): 98.2082%
- % Sgl1 Inhibition (C. neoformans Sgl1; 100 µM compound, 100 µM): 100%
- inhibition at 0.1 µM (C. neoformans Sgl1): 52.2%
- inhibition at 1 µM (C. neoformans Sgl1): 92.9%
- inhibition at 10 µM (C. neoformans Sgl1): 97.6%
- inhibition at 100 µM (C. neoformans Sgl1): 98.1%

Structure (SMILES): CC(C)c1nc(N[C@@H]2C[C@@H](CO)N(C)C2)c2cnn(C)c2n1 [Hit 15]
- selectivity index (SI = LD50/IC50) [1]: > 500
- selectivity index (SI = LD50/IC50) ([1]; listed as 15): > 512
- growth of wild-type C. neoformans (C. neoformans H99 [2]; 10 µM): abrogated C. neoformans growth
- growth of wild-type C. neoformans (C. neoformans H99 [2]; 50 µM): inhibit growth similarly to C. neoformans Δsgl1; also recorded: lack of growth
- inhibition at 12.5427 µM ([3]; 12.5427 µM compound): 0%
- % Cerezyme Inhibition ([3]; 25.0854 µM compound): 1.771%
- inhibition at 25.0854 µM ([3]; 25.0854 µM compound): 1.74%
- % Cerezyme Inhibition ([3]; 50.1708 µM compound): 3.823%
- inhibition at 50.1708 µM ([3]; 50.1708 µM compound): 2.11%
- % Cerezyme Inhibition ([3]; 100.342 µM compound): 6.414%
- inhibition at 100.342 µM ([3]; 100.342 µM compound): 5.46%
- % Cerezyme Inhibition ([3]; 200.683 µM compound): 6.666%
- inhibition at 200.683 µM ([3]; 200.683 µM compound): 9.37%
- % Cerezyme Inhibition ([3]; 401.367 µM compound): 12.8892%
- inhibition at 401.367 µM ([3]; 401.367 µM compound): 13.2%
- % Cerezyme Inhibition ([3]; 800 µM compound): 12.1079%
- inhibition at 800 µM ([3]; 800 µM compound): 16.6%
- Ergosterol 3β-D-glucoside accumulation (pmol/ Inorganic phosphate) (C. neoformans H99 [4]; 12h): 28100000 pmol/ Inorganic phosphate and 30500000 pmol/ Inorganic phosphate and 41500000 pmol/ Inorganic phosphate
- Ergosterol 3β-D-glucoside accumulation (pmol/ Inorganic phosphate) (C. neoformans H99 [4]; 24h): 39400000 pmol/ Inorganic phosphate and 51600000 pmol/ Inorganic phosphate and 57400000 pmol/ Inorganic phosphate
- Ergosterol 3β-D-glucoside accumulation (pmol/ Inorganic phosphate) (C. neoformans H99 [4]; 48h): 34400000 pmol/ Inorganic phosphate and 28300000 pmol/ Inorganic phosphate and 33700000 pmol/ Inorganic phosphate
- accumulation of erg-glc, fold less than the mutant Cn Δsgl1 (C. neoformans H99 [4]): about 10 fold
- erg-glc accumulation compared to untreated Cn H99 control (C. neoformans H99 [4]): significant differences, especially in concentrations higher than 10 µM
- % Sgl1 Inhibition (C. neoformans Sgl1; 0.1 µM compound, 0.1 µM): 19.6403%
- % Sgl1 Inhibition (C. neoformans Sgl1; 1 µM compound, 1 µM): 70.0789%
- % Sgl1 Inhibition (C. neoformans Sgl1; 10 µM compound, 10 µM): 95.289%
- inhibition at 0.1 µM (C. neoformans Sgl1): 26.7%
- inhibition at 1 µM (C. neoformans Sgl1): 73.4%
- inhibition at 10 µM (C. neoformans Sgl1): 95.2%
- inhibition at 100 µM (C. neoformans Sgl1): 100%
